# Test results published in PMC11433870, “Neurotoxicity, Neuroprotection, In Vitro MAOA/MAOB Inhibitory Activity Assessment, Molecular Docking, and Permeability Assay Studies of Newly Synthesized Hydrazones Containing a Pyrrole Ring” (Molecules, 2024).
# Where “and” joins values, the source holds several entries; their conditions need not be identical. Equal entries are not always repeated.
# Legend:
# [1] = system: isolated rat brain synaptosomes; assay: 6-OHDA-induced neurotoxicity model: synaptosomal viability; format: cell-based; conditions: toxic agent applied alone at 150 µM, compared to control (untreated synaptosomes)
# Protocol: (§1) Synaptosomes and mitochondria were obtained by multiple, subcellular fractionation using a Percoll gradient. The necessary brain homogenate was prepared and centrifuged at 1000× g for 5 min at +4 °C. After centrifugation, the supernatants were collected and centrifuged again at 1000× g for 5 min at +4 °C. The supernatants from the two centrifugations were mixed and distributed into four tubes. The tubes were centrifuged at 10,000× g for 20 min at +4 °C three times. The last two centrifugations were for purification of synaptosomes and mitochondria.
# The isolation of the required fractions was based on the formation of a colloidal solution of silicon (Percoll), as per the procedure, including: 1. Preparation of a 90% stock solution of Percoll, followed by preparation of two Percoll solutions of different percentages: 16% and 10%. An amount of 4 mL of each of the prepared 16% and 10% Percoll solutions was placed in six test tubes. A 90% Percoll (7.5% Percoll) was added to the precipitate obtained from the previous step from the last centrifugation. The obtained mixtures in all 12 tubes were centrifuged for 20 min at 15,000× g +4 °C. […]
# After 1 h incubation with the substances and toxic agent, synaptosomes were centrifuged on a microcentrifuge for 1 min at 15,000× g. […] After dissolution, the amount of formazan is measured spectrophotometrically at λ = 580 nm.
# [2] = system: isolated rat brain synaptosomes; assay: 6-OHDA-induced neurotoxicity model: GSH level; format: cell-based; conditions: for preservation of GSH level: 50 µM in combination with 6-OHDA (150 µM), compared to the toxic agent
# Protocol: as §1
# (§2) The isolation of the required fractions was based on the formation of a colloidal solution of silicon (Percoll), as per the procedure, including: 1. Preparation of a 90% stock solution of Percoll, followed by preparation of two Percoll solutions of different percentages: 16% and 10%. An amount of 4 mL of each of the prepared 16% and 10% Percoll solutions was placed in six test tubes. A 90% Percoll (7.5% Percoll) was added to the precipitate obtained from the previous step from the last centrifugation. The obtained mixtures in all 12 tubes were centrifuged for 20 min at 15,000× g +4 °C. After centrifugation, three layers are formed in the tubes. The bottom layer contains mitochondria, the top layer contains lipids, and the middle layer—at the 16% to 10% Percoll limit—contains synaptosomes. The respective layer from each tube is removed through a glass pasteurizer and collected into one. Buffer B + glucose is added to it. The mixture was centrifuged at 10,000× g for 20 min at +4 °C. Thus, the isolation buffer is exchanged with the incubation buffer. After centrifugation, the pellet where the synaptosomes are mixed and made up with buffer B + glucose.
# (§3) Synaptosomes and mitochondria were incubated with the test substances at a concentration of 50 µM for 1 h.
# Synaptosomes were incubated with 6-OHDA (150 μM) for 1 h.
# (§4) After precipitation of the proteins with trichloroacetic acid, the thiol groups in the supernatant were determined by DTNB, which produced a yellow-colored compound that absorbs light at λ = 412 nm. After incubation, synaptosomes were centrifuged at 4000× g for 3 min. The supernatant was removed and the pellet taken for GSH determination. It was treated with 5% trichloroacetic acid, then left for 10 min on ice. It was centrifuged at 8000× g for 10 min (2 °C). The supernatant is taken for GSH determination and frozen at −20 °C. Immediately before measurement, the samples are neutralized with 5N NaOH [58].
# [3] = system: isolated rat brain synaptosomes; assay: Neurotoxicity: synaptosomal viability (MTT), substances applied alone; format: cell-based; conditions: 50 µM applied alone, 1 h, compared to control (untreated synaptosomes)
# Protocol: as §1, §2, §3
# After 1 h incubation with the substances and toxic agent, synaptosomes were centrifuged on a microcentrifuge for 1 min at 15,000× g. The pellet was mixed gently with buffer B + glucose, and the supernatant where 6-OHDA was discarded to prevent oxidation of MTT. Centrifuge again at 15,000× g for 1 min. After the second wash, buffer B + glucose was added to the pellet. To the ‘washed’ synaptosomes, 60 µL of MTT solution is added. The plates were incubated with the MTT solution at 37 °C for 10 min. After incubation, the samples were centrifuged at 15,000× g for 2 min. The excess liquid was removed, and a DMSO solution was used to dissolve the formed formazan crystals. After dissolution, the amount of formazan is measured spectrophotometrically at λ = 580 nm.
# [4] = system: isolated rat brain synaptosomes; assay: Neurotoxicity: reduced glutathione (GSH) level in synaptosomes, substances applied alone; format: cell-based; conditions: 50 µM applied alone, 1 h, compared to control
# Protocol: as §1, §2, §3, §4
# [5] = system: isolated rat brain mitochondria; assay: Neurotoxicity: MDA production in brain mitochondria, substances applied alone; format: cell-based; conditions: 50 µM applied alone, compared to control
# Protocol: as §1, §2, §3
# To the mitochondria was added 0.3 mL of 0.2% thiobarbituric acid and 0.25 mL of sulfuric acid (0.05 M), and the mixture was boiled for 30 min. After boiling, the tubes were placed on ice, and 0.4 mL of n-butanol was added to each, then centrifuged at 3500× g for 10 min. The amount of MDA was determined spectrophotometrically at 532 nm.
# [6] = system: isolated rat brain mitochondria; assay: Neurotoxicity: GSH level in brain mitochondria, substances applied alone; format: cell-based; conditions: 50 µM applied alone, compared to control
# Protocol: as §1, §2
# […]. After centrifugation of the homogenate at 6000× g, a 0.04% solution of DTNB was added to the supernatant to give a yellow color, the determination being spectrophotometric at 412 nm.
# [7] = system: isolated rat brain microsomes; assay: Neurotoxicity: MDA production in brain microsomes, substances applied alone; format: cell-based; conditions: 50 µM applied alone, compared to control
# Protocol: (§5) The brain was homogenized in 9 volume parts of 0.1 M Tris buffer containing: 0.1 mM dithiothreitol, 0.1 mM phenylmethylsulfonyl fluoride, 0.2 mM EDTA, 1.15% KCl, and 20% (v/v) glycerol (pH 7.4). The resulting homogenate was centrifuged twice at 17,000× g for 30 min. The supernatants from the two centrifugations were pooled and centrifuged twice at 100,000× g for 1 h. The pellet was frozen in 0.1 M Tris buffer.
# (§6) After completion of incubation of the microsomes with the substances and toxic agent, the reaction was stopped by the addition of 0.5 mL of 20% trichloroacetic acid, followed by 0.5 mL of 0.67% thiobarbituric acid. The ongoing reactions are associated with the formation of a colored complex between the malondialdehyde formed and thiobarbituric acid. The determination of MDA was spectrophotometric at 535 nm. A molar extinction coefficient of […] was used for the calculation.
# [8] = system: isolated rat brain microsomes; assay: Fe2+/AA-induced non-enzyme lipid peroxidation model: MDA production; format: cell-based; conditions: 50 µM in combination with Fe2+/AA, compared to the toxic agent
# Protocol: as §5
# Non-enzyme-induced lipid peroxidation was induced with 20 μM ferrous sulfate solution and 0.5 mM ascorbic acid solution [62].
# as §6
# [9] = biological target: T1, human recombinant MAOA enzyme (hMAOA) (Homo sapiens, UniProt P21397); assay: Human recombinant MAOA enzyme activity (fluorometric, Amplex Red); format: biochemical; conditions: read-out: IC50 (EC50), (µM ± SD) hMAOA
# T1 sequence (P21397 1-527): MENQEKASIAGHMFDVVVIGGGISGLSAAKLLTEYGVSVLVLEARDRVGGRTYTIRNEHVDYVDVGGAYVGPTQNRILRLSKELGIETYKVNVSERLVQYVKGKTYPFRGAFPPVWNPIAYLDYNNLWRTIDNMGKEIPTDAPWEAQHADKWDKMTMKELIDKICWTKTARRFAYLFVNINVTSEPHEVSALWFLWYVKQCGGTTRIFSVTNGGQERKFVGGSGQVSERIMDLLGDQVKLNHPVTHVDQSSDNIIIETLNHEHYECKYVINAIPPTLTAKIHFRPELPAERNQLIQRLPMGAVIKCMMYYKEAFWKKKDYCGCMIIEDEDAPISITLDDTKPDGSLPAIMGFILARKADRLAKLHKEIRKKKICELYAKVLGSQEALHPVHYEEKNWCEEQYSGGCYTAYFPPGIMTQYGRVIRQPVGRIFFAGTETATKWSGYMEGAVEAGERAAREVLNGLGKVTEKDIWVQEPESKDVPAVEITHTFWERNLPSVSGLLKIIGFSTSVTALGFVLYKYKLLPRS
# Protocol: (§7) The activity of recombinant human MAOA/B was determined fluorometrically. Tyramine hydrochloride was used as substrate. The activity is determined by detection of H2O2 production. This production is in turn reported by binding to horseradish peroxidase using N-acetyl-3,7-dihydroxyphenoxazine (AmplexRed, Thermo Fisher Scientific, Waltham, MA, USA) [63].
# (§8) Working solutions of the test substances, reagents, and human recombinant MAOA/B enzyme (hMAOA/B) were prepared in reaction buffer according to the manufacturer’s instructions. A pure working solution of MAOA/B in reaction buffer, a working solution of MAOA/B containing hydrogen peroxide, and a pure reaction buffer were used as controls. Substances were applied at a final concentration of 1 µM. The substances together with hMAOB were placed in a 96-well plate (8 samples for each substance), and then the plate was placed in an incubator for 30 min (in the dark, at 37 °C). Fluorimetric readings were performed in a Synergy 2 Microplate Reader at two wavelengths (570 nm and 690 nm).
# [10] = biological target: T2, human recombinant MAOB enzyme (hMAOB) (Homo sapiens, UniProt P27338); assay: Human recombinant MAOB enzyme activity (fluorometric, Amplex Red); format: biochemical; conditions: for inhibition at 1 µM: compared to control (pure hMAOB); for IC50: read-out: IC50 (EC50), (µM ± SD) hMAOB;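 as to all read-outs here: tyramine as substrate, H2O2 formation detected by horseradish peroxidase coupled Amplex Red fluorescence read at 570 and 690 nm, compounds incubated with enzyme 30 min at 37 °C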
# T2 sequence (P27338 1-520): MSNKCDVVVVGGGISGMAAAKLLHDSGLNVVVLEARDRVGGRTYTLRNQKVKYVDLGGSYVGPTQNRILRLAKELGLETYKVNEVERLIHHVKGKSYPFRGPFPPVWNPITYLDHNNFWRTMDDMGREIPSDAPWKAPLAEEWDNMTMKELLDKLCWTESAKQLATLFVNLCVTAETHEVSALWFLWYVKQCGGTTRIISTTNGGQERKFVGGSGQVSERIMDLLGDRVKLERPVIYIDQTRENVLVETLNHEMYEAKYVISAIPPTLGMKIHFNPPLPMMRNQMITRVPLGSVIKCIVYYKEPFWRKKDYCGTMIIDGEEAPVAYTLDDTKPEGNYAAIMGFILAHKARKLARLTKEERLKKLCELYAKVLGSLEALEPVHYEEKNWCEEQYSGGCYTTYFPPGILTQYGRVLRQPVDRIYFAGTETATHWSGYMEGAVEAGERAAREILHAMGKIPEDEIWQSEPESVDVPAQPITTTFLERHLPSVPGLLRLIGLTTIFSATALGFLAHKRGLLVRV
# Protocol: as §7, §8
# [11] = pH 7.4, 50 µM, 4 h, 25 °C; Pe calculated in 10^−6 cm/s, presented as −logPe
# [12] = system: isolated rat brain mitochondria; assay: t-BuOOH-induced oxidative stress model: GSH level; conditions: 50 µM in combination with t-BuOOH (75 µM), compared to the toxic agent
# [13] = system: isolated rat brain mitochondria; assay: t-BuOOH-induced oxidative stress model: MDA production; conditions: 50 µM in combination with t-BuOOH (75 µM), compared to the toxic agent
SMILES,decrease in synaptosomal viability by toxic agent alone [1] [%],"decrease in GSH level by toxic agent alone ([2]; toxic agent applied alone at 150 µM, compared to control) [%]",decrease of synaptosomal viability [3] [%],decrease of glutathione (GSH) level [4] [%],increase of MDA production [5] [%],decrease of GSH level [6] [%],increase of MDA production [7] [%],preservation of GSH level [2] [%],decrease of MDA production [8] [%],IC50 [9] [µM],SI: hMAOB selectivity index = IC50(hMAOA)/IC50(hMAOB) [10],inhibition at 1 µM [10] [%],IC50 [10] [µM],PAMPA BBB −logPe [11],preservation of GSH level [12] [%],reduction of MDA production [13] [%]
"NCCc1cc(O)c(O)cc1O [6-OHDA, 6-hydroxydopamine, reference compound]",50,50,–,–,–,–,–,–,–,–,–,–,–,–,–,–
CCOC(=O)c1cc(-c2ccc(Br)cc2)n(CCC(=O)NN=Cc2ccc([N+](=O)[O-])cc2)c1C [8c],–,–,30,25,66,25,60,50,27,> 100,>123,20,0.814 ± 0.2,4.631 ± 0.047,40,5
CCOC(=O)c1cc(-c2ccc(Br)cc2)n(CCC(=O)NN=Cc2cc(OC)c(O)c(OC)c2)c1C [8d],–,–,20,15,40,15,30,70,54,> 100,>204,45,0.49 ± 0.09,4.464 ± 0.026 and 4.464,80,38
CCOC(=O)c1cc(-c2ccc(Br)cc2)n(CCC(=O)NN=Cc2ccc(OC)cc2OC)c1C [8e],–,–,35,20,69,25,63,50,25,> 100,>122,20,0.817 ± 0.09,5.714 and 5.714 ± 0.041,60,11
